Assay [1] has as its system PTZ-induced seizures. Put plainly: Subcutaneous PTZ seizure threshold test. The assay is classed as in vivo, mouse. Conditions: mice, 100 mg/kg i.p. pretreatment, PTZ 85 mg/kg s.c. As for the experimental part: Mouse studies were performed by NIH Anticonvulsant Screening Program at the National Institute of Neurological Disorders and Stroke (Stables and Kupferberg, 1997) according to the established NIH experimental procedures outlined below. Compounds were delivered into mice by i.p. injection at a dose of 100 mg/kg in sterile 5% DMSO, 95% Neobee (Josey et al., 2013). One of four methods for seizure induction was subsequently administered to mice at 0.25, 0.5, 1, 2 and 4 h after treatment with compound. (1) Subcutaneous PTZ seizure threshold test. PTZ was administered at a concentration of 85 mg/kg, into the loose fold of skin in the midline of the neck. […] (2) Maximal electroshock test. 60 Hz of 50 mA alternating current was delivered for 0.2 s by corneal electrodes. Mice were considered protected from seizures when the hindlimb tonic extensor was absent (White et al., 1995). (3) Minimal clonic seizure (6 Hz) test. 6 Hz of 32 mA or 44 mA alternating current was delivered for 3 s by corneal electrodes to elicit a psychomotor seizure. Mice were considered protected from seizures when the automatistic behaviors were absent (Barton et al., 2001). (4) Corneal kindled mouse model. Mice were kindled electrically with a 3 s stimulation, 8 mA, 60 Hz, and corneal electrodes to a criterion of 10 consecutive Stage 5 seizures (facial clonus and head nodding progressing to forelimb clonus, and finally rearing and falling accompanied by a generalized clonic seizure as described by Racine, 1972). Animals generally reach Stage 5 after twice daily stimulation for 8 days. With continued stimulation once a day, animals usually progressed to a reproducible Stage 5 after 10-14 additional days. At least 72 hours after the mice were kindled, the test substance was administered i.p. and each animal was given the electrical stimulus indicated above. […] Treated animals not displaying a Stage 4 or 5 seizure were considered protected.

Assay [2] relates to HT22 cells. Put plainly: Mitochondrial morphology and superoxide generation (MitoSOX, Mitotracker). The assay is classed as cell-based, mouse. The conditions noted are these: HT22, high extracellular glutamate, co-treatment. As for the experimental part: In order to evaluate the source of the ROS generation, fluorescence microscopy was used to image HT22 using the fluorogenic dyes Mitotracker Deep Red (DR) and MitoSOX Red (Invitrogen). Mitotracker DR is a cell permeant dye that accumulates in active, polarized mitochondria. […] Briefly, HT22 cells were seeded onto black walled 96-well plates at 5.0×10^3 cells per well in 75 μL of medium and maintained at 37° C. in 5% CO2 overnight prior to the initiation of experimental treatments. Cells were subsequently treated with 25 μL of medium containing glutamate (monosodium glutamate, Sigma-Aldrich, 1 M stock concentration in media, to achieve a final concentration of 10 mM) plus inhibitors (stock in DMSO) and maintained at 37° C. in 5% CO2. After 8 hrs, MitoSOX Red (5 μM) and Mitotracker DR (10 nM) were added to achieve the indicated final concentrations. Cells were allowed to incubate for 20 minutes and then washed twice with Hanks Balanced Salt Solution (HBSS; Hyclone; CaCl2 1.26 mM, MgCl2-6H2O 0.493 mM, MgSO4-7H2O 0.407 mM, KCl 5.33 mM, KH2PO4 0.441 mM, NaHCO3 4.17 mM, NaCl 137.93 mM, Na2HPO4 0.338 mM, D-Glucose 5.56 mM), with a final addition of 100 μL of HBSS in which the cells were visualized. Cells were immediately visualized using an InCell 2000 Analyzer (GE) with a 40× objective and a Cy5/Cy5 excitation/emission filter set for Mitotracker DR and a YFP/Cy3 filter set for MitoSOX Red. Image processing was performed using ImageJ, and for all images, the microscope and image processing settings, such as levels, brightness, contrast, and exposure time were held constant across all treatment conditions.

In assay [3] the test system is PTZ-induced seizures. Put plainly: PTZ-induced seizure (swim activity) model in zebrafish larvae. Type of assay: in vivo, zebrafish (Danio rerio).

Experimental findings from patent US10391070B2, “Compositions and methods for treating neurological diseases or injury” (MUSC FOUNDATION FOR RESEARCH DEVELOPMENT, priority 2012, dated 2019) are described below.

With `C#CCNC1=CC(=O)c2ccccc2C1=O` [Compound 2h, 2-(prop-2-yn-1-ylamino)naphthalene-1,4-dione], in assay [1], the “effect on PTZ-induced seizures” value is reported as “had no effect on PTZ-induced seizures in mice”.
Turning to `O=C1C=C(NCc2ccccc2)C(=O)c2ccccc21` [Compound 2j, 2-(benzylamino)naphthalene-1,4-dione], in assay [2], the “mitochondrial superoxide generation and mitochondrial fragmentation” value is “prevented these events”. Moreover, the “effect on PTZ-induced seizures” value in assay [1] is recorded as “had no effect on PTZ-induced seizures in mice”.
`O=C1C=C(NCc2cccc(Cl)c2)C(=O)c2ccccc21` [Compound 2q, 2-((3-chlorobenzyl)amino)naphthalene-1,4-dione]: the “mitochondrial superoxide generation and mitochondrial fragmentation” value in assay [2] is on record as “prevented these events”. Further, in assay [3] (7 dpf zebrafish, 1 h pretreatment, 15 mM PTZ, 2j 10 μM, 2h 20 μM, 2q 20 μM, 3n 8 μM), the “fold reduction of PTZ-induced swim activity (distance traveled)” value is on record as “more than two fold”. For the same molecule, the “effect on PTZ-induced seizures” value in assay [1] was “had no effect on PTZ-induced seizures in mice”.
`CC1=CC(=O)c2ccccc2C1=O` [VK3, menadione, reference compound]: the “fold reduction of distance traveled from PTZ levels” value in assay [3] (7 dpf zebrafish, 1.5 μM) is 0.5 fold. In addition, the “fold reduction of PTZ-induced swim behavior” value in assay [3] (7 dpf zebrafish, 3 μM) turned out to be 2 fold. The “fold reduction of distance traveled after PTZ treatment” value in assay [3] (7 dpf zebrafish, 6 μM, 1 h pretreatment, 15 mM PTZ) is given as “more than 4 fold”. The “concentrations reducing seizure activity” value in assay [3] (PTZ-treated 6 dpf zebrafish, dose dependent) lay within 1.5 to 6 µM.
As to menaquinones [VK2, reference compound], in assay [2], the “mitochondrial superoxide generation and mitochondrial fragmentation” value is reported as “prevented these events”. For the same molecule, the reduction of seizures entry in assay [3] (PTZ-treated 6 dpf zebrafish, up to 100 mM) is on record as “neither were found to reduce seizures”.
